Experimental data as given in the supplement of paper PMC10307832.

Experiments:
Assay in all cases: relative viability (nuclei count vs DMSO), 5 days (fraction); higher = more cells survive
NCI-H2009 = tested on: NCI-H2009
Outline: (§1)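 Lung cancer cell lines were pin-tool dosed in 1536-well plates on the day after seeding, with either a lone drug or a fixed anchor-drug dose plus five library-drug doses (not always all listed) in √10 steps. Nuclei were counted on 4× images after 5 days. Relative viability is the ratio of treated-well to vehicle-well nuclei counts, with each value a median of duplicate plates.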

NCI-H2170 = tested on: NCI-H2170
Outline: as §1

NCI-H3122 = tested on: NCI-H3122
Outline: as §1

NCI-H322M = tested on: NCI-H322M
Outline: as §1

NCI-H522 = tested on: NCI-H522
Outline: as §1

NCI-H596 = tested on: NCI-H596
Outline: as §1

NCI-H727 = tested on: NCI-H727
Outline: as §1

PC-3 [JPC-3] = tested on: PC-3 [JPC-3]
Outline: as §1

SK-MES-1 = tested on: SK-MES-1
Outline: as §1

SW 1573 = tested on: SW 1573
Outline: as §1

SW 900 = tested on: SW 900
Outline: as §1

## O=c1cc(N2CCOCC2)oc2c(-c3cccc4c3sc3ccccc34)cccc12 + Nc1ncn([C@H]2C[C@H](O)[C@@H](CO)O2)c(=O)n1 [Decitabine] (partner 2 µM)
NCI-H2009; first compound 0.1 µM
  relative viability: 0.332
NCI-H2009; first compound 0.3162 µM
  relative viability: 0.368
NCI-H2009; first compound 1 µM
  relative viability: 0.399
NCI-H2170; first compound 0.01 µM
  relative viability: 0.472
NCI-H2170; first compound 0.03162 µM
  relative viability: 0.447
NCI-H2170; first compound 0.1 µM
  relative viability: 0.475
NCI-H2170; first compound 0.3162 µM
  relative viability: 0.457
NCI-H2170; first compound 1 µM
  relative viability: 0.461
NCI-H3122; first compound 0.01 µM
  relative viability: 0.405
NCI-H3122; first compound 0.03162 µM
  relative viability: 0.436
NCI-H3122; first compound 0.1 µM
  relative viability: 0.564
NCI-H3122; first compound 0.3162 µM
  relative viability: 0.452
NCI-H3122; first compound 1 µM
  relative viability: 0.388
NCI-H322M; first compound 0.01 µM
  relative viability: 0.683
NCI-H322M; first compound 0.03162 µM
  relative viability: 0.678
NCI-H322M; first compound 0.3162 µM
  relative viability: 0.748
NCI-H322M; first compound 1 µM
  relative viability: 0.751
NCI-H522; first compound 0.01 µM
  relative viability: 0.709
NCI-H522; first compound 0.03162 µM
  relative viability: 0.662
NCI-H522; first compound 0.1 µM
  relative viability: 0.669
NCI-H522; first compound 0.3162 µM
  relative viability: 0.649
NCI-H522; first compound 1 µM
  relative viability: 0.696
NCI-H596; first compound 0.01 µM
  relative viability: 0.974
NCI-H596; first compound 0.03162 µM
  relative viability: 1.07
NCI-H596; first compound 0.1 µM
  relative viability: 1.09
NCI-H596; first compound 0.3162 µM
  relative viability: 1.03
NCI-H596; first compound 1 µM
  relative viability: 1.05
NCI-H727; first compound 0.01 µM
  relative viability: 0.749
NCI-H727; first compound 0.03162 µM
  relative viability: 0.914
NCI-H727; first compound 0.1 µM
  relative viability: 0.796
NCI-H727; first compound 0.3162 µM
  relative viability: 0.954
NCI-H727; first compound 1 µM
  relative viability: 0.773
PC-3 [JPC-3]; first compound 0.01 µM
  relative viability: 0.809
PC-3 [JPC-3]; first compound 0.03162 µM
  relative viability: 0.859
PC-3 [JPC-3]; first compound 0.1 µM
  relative viability: 0.874
PC-3 [JPC-3]; first compound 0.3162 µM
  relative viability: 0.814
PC-3 [JPC-3]; first compound 1 µM
  relative viability: 0.811
SK-MES-1; first compound 0.01 µM
  relative viability: 0.419
SK-MES-1; first compound 0.03162 µM
  relative viability: 0.43
SK-MES-1; first compound 0.1 µM
  relative viability: 0.366
SK-MES-1; first compound 0.3162 µM
  relative viability: 0.351
SK-MES-1; first compound 1 µM
  relative viability: 0.365
SW 1573; first compound 0.01 µM
  relative viability: 0.625
SW 1573; first compound 0.03162 µM
  relative viability: 0.577
SW 1573; first compound 0.1 µM
  relative viability: 0.529
SW 1573; first compound 0.3162 µM
  relative viability: 0.409
SW 1573; first compound 1 µM
  relative viability: 0.665
SW 900; first compound 0.03162 µM
  relative viability: 0.435
SW 900; first compound 0.1 µM
  relative viability: 0.471
SW 900; first compound 0.3162 µM
  relative viability: 0.459
SW 900; first compound 1 µM
  relative viability: 0.456
